Results taken from patent US20230279053A1 (priority 2020, published 2023).

Assays:
Mouse GLP-1R = target: T1, Mouse GLP-1R (Mus musculus, UniProt O35659); assay: Functional antagonism of mouse GLP1 receptors, cAMP accumulation assay; format: cell-based; settings: CHO-K1 cells stably expressing mouse GLP-1R; stimulated with EC80 of Exendin-4; HitHunter cAMP assay; IC50 corrected by Cheng-Prusoff adaptation
T1 construct: expressed in transfected cells
T1 sequence (O35659 22-463): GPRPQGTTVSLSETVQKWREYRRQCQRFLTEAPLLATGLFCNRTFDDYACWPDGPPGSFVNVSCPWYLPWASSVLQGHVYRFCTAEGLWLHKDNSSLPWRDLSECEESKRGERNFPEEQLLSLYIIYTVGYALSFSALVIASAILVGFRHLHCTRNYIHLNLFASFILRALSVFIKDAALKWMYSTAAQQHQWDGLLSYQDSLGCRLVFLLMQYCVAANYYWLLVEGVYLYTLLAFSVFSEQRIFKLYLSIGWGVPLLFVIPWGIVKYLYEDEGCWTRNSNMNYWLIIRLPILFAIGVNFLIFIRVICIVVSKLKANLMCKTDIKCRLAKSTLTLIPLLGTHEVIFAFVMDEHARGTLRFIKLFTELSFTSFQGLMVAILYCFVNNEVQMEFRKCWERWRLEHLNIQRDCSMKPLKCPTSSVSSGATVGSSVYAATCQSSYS
Experimental: Antagonist inhibition of cAMP production upon stimulation of GLP-1R with agonist ligand was assessed using HitHunter cAMP assay (DiscoverX). The method followed antagonist procedure steps provided in the kit. In brief, CHO-K1 cells stably expressing mouse GLP-1R were thawed and plated at 10K cells per well in CP05 reagent in the total volume of 20 μl into white walled, 384-well plates and incubated overnight at 37° C. in Cytomat. On the day of the assay, the media was replaced with 15 μl of HBSS/10 mM HEPES. DMSO stock of test compounds were serially diluted in DMSO and then further diluted in the HBSS/10 mM HEPES, 5 μl of each concentration were added to the plate followed by 30 min incubation at 37° C. Final DMSO concentration in the assay was 1%. Cells were stimulated for further 30 min at 37° C. by addition of an equivalent to EC80 concentration of Exendin-4. Intracellular accumulation of cAMP was stopped by addition of the HitHunter detection reagents in lysis buffer, provided in the kit. Following 1-hour incubation at RT in the dark, plates were read on Envision (Perkin Elmer). Dotmatics Studies software was used for fitting data to a four-parameter concentration response curve. Calculated IC50 values were corrected for the agonist concentration using an adaptation of the Cheng-Prusoff equation to generate functional pKb values: […]

Human GLP-1R = target: T2, Human GLP-1R (Homo sapiens, UniProt P43220); assay: Functional antagonism of human GLP1 receptors, cAMP accumulation assay; format: cell-based; settings: HEK cells infected with GLP-1R Bacmam; stimulated with EC80 of GLP-1(7-36) amide; HiRange cAMP kit; IC50 corrected by Cheng-Prusoff adaptation
T2 construct: expressed in transfected cells; host or cells: HEK cells, BacMam transduction
T2 sequence (P43220 24-463): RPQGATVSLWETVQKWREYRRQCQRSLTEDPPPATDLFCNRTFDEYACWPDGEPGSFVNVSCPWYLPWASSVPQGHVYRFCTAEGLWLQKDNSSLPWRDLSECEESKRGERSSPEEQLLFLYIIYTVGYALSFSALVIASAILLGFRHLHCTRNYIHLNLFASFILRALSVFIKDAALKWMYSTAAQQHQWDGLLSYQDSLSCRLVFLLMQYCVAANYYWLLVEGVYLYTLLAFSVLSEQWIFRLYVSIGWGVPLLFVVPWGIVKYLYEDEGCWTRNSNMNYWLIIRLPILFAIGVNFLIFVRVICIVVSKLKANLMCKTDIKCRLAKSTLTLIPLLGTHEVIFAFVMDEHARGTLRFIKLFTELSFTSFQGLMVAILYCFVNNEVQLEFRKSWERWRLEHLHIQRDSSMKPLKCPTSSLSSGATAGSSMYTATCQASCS
Experimental: The method followed a two-step protocol provided in the kit. In brief, HEK cells infected with 1% v/v GLP-1R Bacmam for 24 h were harvested using cell dissociation solution (Gibco), centrifuged and resuspended in the assay buffer (HBSS (Lonza) supplemented with 0.5 mM IBMX (Tocris)). DMSO stock of test compounds were serially diluted in the assay buffer and added to 96-well half area white plates (Costar). Final DMSO concentration in the assay was 0.3%. 20K cells per well were added to plates followed by 30 min incubation (humidified air (5% CO2), 37° C.). […] Intracellular accumulation of cAMP was stopped by addition of the HTRF detection reagents in lysis buffer, provided in the kit. Following 1-hour incubation at RT, plates were read on Pherastar FS (BMG Labtech, Inc.) Dotmatics Studies software was used for fitting data to a four-parameter concentration response curve. Calculated IC50 values were corrected for the agonist concentration using an adaptation of the Cheng-Prusoff equation to generate functional pKb values: […]

exendin(9-39)amide [Ex 9-39]
Mouse GLP-1R antagonist cAMP fpKb (Mouse GLP-1R): 7.2 | Human GLP-1R antagonist cAMP fpKb (Human GLP-1R): 7.8
